Experimental data from patent publication US7741520B2, “Sulfonanilide analogs as selective aromatase modulators (SAMs)” (The Ohio State University Research Foundation, priority 2006, dated 2010).

Legend:
[1] = target: T1, aromatase activity in JAR choriocarcinoma placental cells (Homo sapiens, UniProt P11511); assay: Tritiated water-release assay in JAR cells; format: cell-based; conditions: 24 h, 15 μM (FIG. 11), read-out: decrease of aromatase activity in JAR cells
T1 construct: JAR choriocarcinoma placental cells (which produce aromatase expression from promoter I.1 mediated by protein kinase C); host or cells: JAR
T1 sequence (P11511 1-503): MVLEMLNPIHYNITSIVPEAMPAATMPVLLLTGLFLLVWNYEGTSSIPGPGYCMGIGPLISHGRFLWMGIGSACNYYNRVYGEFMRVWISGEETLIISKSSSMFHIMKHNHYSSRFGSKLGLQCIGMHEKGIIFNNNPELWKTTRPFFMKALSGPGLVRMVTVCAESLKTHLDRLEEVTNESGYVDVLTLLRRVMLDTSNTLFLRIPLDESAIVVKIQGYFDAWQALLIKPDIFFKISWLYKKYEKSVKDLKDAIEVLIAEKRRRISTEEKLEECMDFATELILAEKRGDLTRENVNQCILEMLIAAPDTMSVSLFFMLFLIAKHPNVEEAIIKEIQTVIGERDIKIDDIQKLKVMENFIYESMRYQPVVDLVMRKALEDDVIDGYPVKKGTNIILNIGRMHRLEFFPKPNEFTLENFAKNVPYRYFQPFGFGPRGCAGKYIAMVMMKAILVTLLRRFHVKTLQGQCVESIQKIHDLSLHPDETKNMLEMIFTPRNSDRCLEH
Experimental: Cell Culture. AR and SK-BR-3 cells were obtained from ATCC (Rockville, Md.). SK-BR-3 cells were maintained in phenol red-free custom media (MEM, Earle's salts, 1.5× amino acids, 2× non-essential amino acids, L-glutamine, 1.5× vitamins, Gibco BRL) supplemented with 10% fetal bovine serum (FBS), 2 mM L-glutamine and 20 mg/L gentamycin. JAR cells were maintained in RPMI 1640 medium with 2 mM L-glutamine adjusted to contain 1.5 g/L sodium bicarbonate, 4.5 g/L glucose, 10 mM HEPES, and 1.0 mM sodium pyruvate, 90%; FBS, 10%. Fetal bovine serum was heat inactivated for 30 min in a 56° C. water bath before use. Cell cultures were grown at 37° C., in a humidified atmosphere of 5% CO2 in a Hereaus CO2 incubator. For all experiments, cells were plated in 6 well plates and grown to subconfluency. Before treatment, the media was changed to a defined one containing DMEM/F12 media (Sigma) with 1.0 mg/mL human albumin (OSU Hospital Pharmacy), 5.0 mg/L human transferin and 5.0 mg/L bovine insulin.
Tritiated water-release assay in JAR and SK-BR-3 cell lines. Measurement of aromatase enzyme activity was based on the tritium water release assay. Cells in six well plates were treated with 0.1% DMSO (control), and inhibitors at the indicated concentrations. After 24 hours, the cells were incubated 3 hours (SK-BR-3 cells) or 1 hour (JAR cells) with fresh media along with 100 nM [1β-^3H]-androst-4-ene-3,17-dione (1 μCi). Subsequently, the reaction mixture was removed, and proteins were precipitated using 10% trichloroacetic acid at 42° C. for 20 min. After a brief centrifugation, the media was extracted three times with an equal amount of chloroform to remove remaining substrate and further treated with dextran-treated charcoal. After centrifugation, a 250-μl aliquot containing the product was counted in 5 ml of liquid scintillation mixture. Results were corrected for blanks and for the cell contents of culture flasks, and results were expressed as picomoles of ^3H2O formed per hour incubation time per million live cells (pmol/h/10^6 cells). To determine the amount of cells in each flask, the cells were lysed and analyzed using the diphenylamine DNA assay adapted to a 96-well plate. IC50 sigmoidal dose-response data were analyzed with Microsoft Excel and the Graphpad Prism (Version 3.0) program.
Diphenylamine DNA Assay To determine the amount of viable cells in each flask, the cells were lysed with 0.5N NaOH aqueous solution and analyzed using the diphenylamine DNA assay adapted to a 96-well plate. DNA standards (0-30 μg) were prepared using double-stranded DNA reconstituted in PBS and added in triplicates directly to the wells. A uniform cell suspension was prepared from the 6 well plate in 300 μl 0.5N NaOH aqueous solution, and 60 μl of the unknown samples were added in triplicates to separate wells. A solution of 0.16% acetaldehyde in water was prepared and mixed at a 1:5 ratio with perchloric acid (20% vol/vol). This solution (60 μl) was added to each well along with 100 μl of a 4% diphenylamine solution in glacial acetic acid. The plates were incubated at 37° C. for 24 hours. After centrifugation, 100 μl supernatant of each well was transferred to a new 96 well plate, and the OD595 was measured using a microplater reader. The DNA concentration was determined by extrapolation to the standard curve and the amount of cells/well was calculated using the equation: 1 cell≈7 pg DNA.

SK-BR-3 cells = assay: Analysis of apoptosis (single-stranded DNA ELISA) in SK-BR-3 cells; format: cell-based, human; conditions: 5 μM, 24 hours (FIG. 16)
Experimental: Analysis of apoptosis. Apoptosis was determined by selective denaturation of DNA in apoptotic cells by formamide and detection of denatured DNA with a monoclonal antibody to single-stranded DNA using an ELISA kit (CHEMICON, Temecula, Calif.). Cells were plated in a 96-well flat bottom plate from 0.5×10^4 to 1×10^4 cells/well in custom media. Cells were allowed to adhere to wells overnight. Following incubation, compounds were made up in define media and a 5 μM screen was performed in each cell line with respective compounds in triplicate for 24 hours. Following treatment, the plate was centrifuged at 200×g for 5 min, media was removed followed by the addition of 200 μl of fixative. The plate was incubated for 30 min at 37° C., at which point the fixative was removed and the plate dried for 1-2 hours at room temperature. Fifty microliters of formamide was added to each well following a brief incubation at room temperature for 10 min. The DNA in apoptotic cells was denatured by heating the plate for 10 min, then briefly cooling the plate for 5 min at 4° C. following removal of formamide. The plate was rinsed three times with 200 μl of PBS following one hour incubation at 37° C. with 200 μl of 3% blocking agent. After removal of the blocking agent, 100 μl of antibody mixture were added to each well for 30 min at room temperature. The plate was washed three times with 1× wash buffer using 250 μl of wash buffer/well followed by the addition of 200 μl of ABTS solution added to each well for a 15-60 minute incubation. The reaction was stopped by the addition of 100 μl of a stop solution added to each well and absorbance was measured at 405 nm on a SpectroMax 340 UV PlateReader.

Compound	inhibition at 15 µM [1] [%]	apoptotic effects (SK-BR-3 cells)
CN(c1ccc([N+](=O)[O-])cc1OCc1ccccc1)S(C)(=O)=O [Compound 26f, N-methyl-N-(2-benzyloxy-4-nitrophenyl) methanesulfonamide]	< 50	do not produce apoptotic effects
CN(c1ccc([N+](=O)[O-])cc1OCc1ccc2ccccc2c1)S(C)(=O)=O [Compound 28c, N-methyl-N-[2-(β-naphthylmethoxy) 4-nitrophenyl]methanesulfonamide]	< 50	do not produce apoptotic effects
CN(c1ccc([N+](=O)[O-])cc1OCc1ccc([N+](=O)[O-])cc1)S(C)(=O)=O [Compound 27c, N-methyl-N-[2-(4′-nitrobenzyloxy)-4-nitrophenyl]methanesulfonamide]	< 50	do not produce apoptotic effects

Further lines, with some results ahead:

inhibition at 15 µM [1] [%]	Compound	apoptotic effects (SK-BR-3 cells)
< 50	CN(c1ccc([N+](=O)[O-])cc1OCc1ccc(F)cc1)S(C)(=O)=O [Compound 33c, N-methyl-N-[2-(4′-fluorobenzyloxy)-4-nitrophenyl]methanesulfonamide]	do not produce apoptotic effects
< 50	CN(c1ccc([N+](=O)[O-])cc1OCc1ccccc1-c1ccccc1)S(C)(=O)=O [Compound 29c, N-methyl-N-[2-(2′-phenylbenzyloxy)-4-nitrophenyl]methanesulfonamide]	do not produce apoptotic effects
< 50	Cc1ccc(COc2cc([N+](=O)[O-])ccc2N(C)S(C)(=O)=O)cc1 [Compound 30c, N-methyl-N-[2-(4′-methylbenzyloxy)-4-nitrophenyl]methanesulfonamide]	do not produce apoptotic effects
